Results taken from patent US20240261225A1, “FORMIC ACID AS PROCESSING AID IN SPRAY DRYING FOR BASIC DRUGS” (Lonza Bend Inc., priority 2021, published 2024).
≈ marks a conversion by molar mass, not a printed value.

Legend:
physchem [1] = details: 21 °C, organic solvent or mixture, thermodynamic from solid, Solubility with formic acid
Description: The solubility of gefitinib in solvent mixtures with 98% formic acid were obtained by suspending at RT 300 mg of crystalline gefitinib in 5 mL of solvent containing 100 microliters of formic acid at 21° C. (4.0 eq of formic acid). Both solutions were visually clear solutions at 60 mg/mL.
5 ml of a mixture of 4.9 ml of 90:10 methanol/water w/w with 0.1 ml HCOOH weigh 4.122 g based on the densities at RT as stated below.
5 ml of a mixture of 4.9 ml 80:20 methanol:water w/w with 0.1 ml HCOOH weigh 4.212 g based on the densities at RT as stated below.
The solution in the mixture of 4.9 ml of 90:10 MeOH:H2O w/w with 0.1 ml HCOOH was a visually clear solution at 72.8 mg/g based on the densities at RT as stated below.
The solution in the mixture of 4.9 ml of 80:20 MeOH:H2O w/w with 0.1 ml HCOOH was a visually clear solution at 71.2 mg/g based on the densities at RT as stated below.
[Solubility with formic acid]/[Solubility without formic acid]

[2] = Gefitinib solubility in methanol and methanol:water mixtures (saturated solutions, HPLC); assay type: physicochemical; details: 20° C.; for Solubility without formic acid: calculated based on densities at RT
Description: Crystalline gefitinib was added in excess to methanol and methanol:water mixtures to form saturated solutions at 20° C. After 24 hour of stirring, 1 mL aliquots were centrifuged at 10'000 RCF for 3 min. The supernatant was then analyzed for gefitinib concentration by HPLC.

[3] = Nilotinib solubilities without and with formic acid; details: for Solubility with formic acid: 4.0 molar equivalents of formic acid
[4] = according to go.drugbank.com; cited from earlier work
physchem [5] = details: 25 °C, organic solvent or mixture

SMILES | solubility (physchem [1]) [µg/mL] | Solubility without formic acid ([2]; MeOH:H2O 80:20 (w/w)) [mg/g] | Solubility without formic acid ([2]; MeOH:H2O 90:10 (w/w)) [mg/g] | Solubility without formic acid ([2]; MeOH:H2O 100:0 (w/w)) [mg/g] | solubility at 24 h ([2]; methanol, organic solvent or mixture, thermodynamic from solid, MeOH:H2O 100:0 (w/w), read-out: Solubility without formic acid) [µg/mL] | Solubility with formic acid ([3]; MeOH:H2O 80:20 (w/w), 25° C.) [µg/mL] | Solubility without formic acid ([3]; MeOH:H2O 80:20 (w/w), 25° C.) [µg/mL] | Solubility with formic acid ([3]; MeOH:H2O 90:10 (w/w), 25° C.) [µg/mL] | Solubility with formic acid ([3]; MeOH:H2O 100:0 (w/w), 25° C.) [µg/mL] | effect of addition of formic acid on solubility over the solubility in MeOH ([3]; formic acid with and without the presence of water) | basic pKa [4] | solubility (physchem [5]; methanol) [µg/mL] | solubility (physchem [5]; methanol:water 90:10 (w/w)) [µg/mL]
COc1cc2ncnc(Nc3ccc(F)c(Cl)c3)c2cc1OCCCN1CCOCC1 [gefitinib] | ≥ 60000 | 7.6 | 7.4 | 8.8 | 7000 (≈ 15.7 mM) | – | – | – | – | – | – | – | –
Cc1cn(-c2cc(NC(=O)c3ccc(C)c(Nc4nccc(-c5cccnc5)n4)c3)cc(C(F)(F)F)c2)cn1 [nilotinib] | – | – | – | – | – | 8200 | 1000 (≈ 1.89 mM) | 8200 | 7900 | increase of solubility | 5.92 | 2900 (≈ 5.48 mM) | 2000 (≈ 3.78 mM)
